Results taken from patent publication US7563592B2, “Alizarin-based chromogenic substrates, their uses and composition containing same” (Biomerieux, S.A., priority 1999, dated 2009).

Legend:
Assay in all cases: Effect of metal salts on the color of the marker part, substrate 50 mg/l in Columbia medium (Example 3)
Type in all cases: cell-based
[1] = system: Listeria monocytogenes 081
Procedure: (§1) To the Columbia-base medium (46.37 g/l) supplemented with Alizarin-2-β-D-glucoside (50 mg/l), were added either Manganese chloride, Ammoniacal iron citrate, Tin chloride, or Aluminum sulfate, all at a concentration of 50 mg/l. A control medium with no metal salts was tested in parallel. After autoclaving, these various media were all used to prepare Petri dishes (20 ml per plate). […] It should be pointed out that intensity readings are in arbitrary units. The only purpose of giving these values is to make it possible to compare one strain with another in this respect. The same is true for the examples which follow. Similarly, the strains tested were taken from the Applicant's collection and the number given represents an internal reference specific to this collection. The same internal numbering system is also used in some of the examples given later on.

Listeria innocua 036 = system: Listeria innocua 036
Procedure: as §1

Listeria ivanovii 018 = system: Listeria ivanovii 018
Procedure: as §1

Listeria grayi 078 = system: Listeria grayi 078
Procedure: as §1

Listeria ivanovii 020 = system: Listeria ivanovii 020
Procedure: as §1

Listeria seeligeri 011 = system: Listeria seeligeri 011
Procedure: as §1

Listeria innocua 077 = system: Listeria innocua 077
Procedure: as §1

[2] = Manganese chloride 50 mg/l, 24 H
[3] = Manganese chloride 50 mg/l, 48 H

O=C1c2ccccc2C(=O)c2c1ccc(O[C@@H]1O[C@H](CO)[C@@H](O)[C@H](O)[C@H]1O)c2O [Alizarin-2-β-D-glucoside]
Color ([1]; Aluminum sulfate 50 mg/l, 24 H): red
Intensity ([1]; Aluminum sulfate 50 mg/l, 24 H): 4 arbitrary units
Color ([1]; Aluminum sulfate 50 mg/l, 48 H): red
Intensity ([1]; Aluminum sulfate 50 mg/l, 48 H): 4 arbitrary units
Color ([1]; Control, no metal salt, 24 H): purple
Intensity ([1]; Control, no metal salt, 24 H): 2.3 arbitrary units
Color ([1]; Control, no metal salt, 48 H): purple
Intensity ([1]; Control, no metal salt, 48 H): 2.3 arbitrary units
Color ([1]; Iron citrate 50 mg/l, 24 H): purple
Intensity ([1]; Iron citrate 50 mg/l, 24 H): 4 arbitrary units
Color ([1]; Iron citrate 50 mg/l, 48 H): purple
Intensity ([1]; Iron citrate 50 mg/l, 48 H): 4 arbitrary units
Color [1, 2]: purple
Intensity [1, 2]: 2.3 arbitrary units
Color [1, 3]: purple
Intensity [1, 3]: 2.7 arbitrary units
Color ([1]; Tin chloride 50 mg/l, 24 H): orange
Intensity ([1]; Tin chloride 50 mg/l, 24 H): 3 arbitrary units
Color ([1]; Tin chloride 50 mg/l, 48 H): orange
Intensity ([1]; Tin chloride 50 mg/l, 48 H): 4 arbitrary units
Color (Listeria innocua 036; Aluminum sulfate 50 mg/l, 24 H): red
Intensity (Listeria innocua 036; Aluminum sulfate 50 mg/l, 24 H): 4 arbitrary units
Color (Listeria innocua 036; Aluminum sulfate 50 mg/l, 48 H): red
Intensity (Listeria innocua 036; Aluminum sulfate 50 mg/l, 48 H): 4 arbitrary units
Color (Listeria innocua 036; Control, no metal salt, 24 H): purple
Intensity (Listeria innocua 036; Control, no metal salt, 24 H): 2.3 arbitrary units
Color (Listeria innocua 036; Control, no metal salt, 48 H): purple
Intensity (Listeria innocua 036; Control, no metal salt, 48 H): 2.7 arbitrary units
Color (Listeria innocua 036; Iron citrate 50 mg/l, 24 H): purple
Intensity (Listeria innocua 036; Iron citrate 50 mg/l, 24 H): 4 arbitrary units
Color (Listeria innocua 036; Iron citrate 50 mg/l, 48 H): purple
Intensity (Listeria innocua 036; Iron citrate 50 mg/l, 48 H): 4 arbitrary units
Color (Listeria innocua 036; [2]): purple
Intensity (Listeria innocua 036; [2]): 2.3 arbitrary units
Color (Listeria innocua 036; [3]): purple
Intensity (Listeria innocua 036; [3]): 2.7 arbitrary units
Color (Listeria innocua 036; Tin chloride 50 mg/l, 24 H): orange
Intensity (Listeria innocua 036; Tin chloride 50 mg/l, 24 H): 3 arbitrary units
Color (Listeria innocua 036; Tin chloride 50 mg/l, 48 H): orange
Intensity (Listeria innocua 036; Tin chloride 50 mg/l, 48 H): 4 arbitrary units
Color (Listeria ivanovii 018; Aluminum sulfate 50 mg/l, 24 H): red
Intensity (Listeria ivanovii 018; Aluminum sulfate 50 mg/l, 24 H): 4 arbitrary units
Color (Listeria ivanovii 018; Aluminum sulfate 50 mg/l, 48 H): red
Intensity (Listeria ivanovii 018; Aluminum sulfate 50 mg/l, 48 H): 4 arbitrary units
Color (Listeria ivanovii 018; Control, no metal salt, 24 H): purple
Intensity (Listeria ivanovii 018; Control, no metal salt, 24 H): 2.3 arbitrary units
Color (Listeria ivanovii 018; Control, no metal salt, 48 H): purple
Intensity (Listeria ivanovii 018; Control, no metal salt, 48 H): 2.3 arbitrary units
Color (Listeria ivanovii 018; Iron citrate 50 mg/l, 24 H): purple
Intensity (Listeria ivanovii 018; Iron citrate 50 mg/l, 24 H): 4 arbitrary units
Color (Listeria ivanovii 018; Iron citrate 50 mg/l, 48 H): purple
Intensity (Listeria ivanovii 018; Iron citrate 50 mg/l, 48 H): 4 arbitrary units
Color (Listeria ivanovii 018; [2]): purple
Intensity (Listeria ivanovii 018; [2]): 2.7 arbitrary units
Color (Listeria ivanovii 018; [3]): purple
Intensity (Listeria ivanovii 018; [3]): 2.7 arbitrary units
Color (Listeria ivanovii 018; Tin chloride 50 mg/l, 24 H): orange
Intensity (Listeria ivanovii 018; Tin chloride 50 mg/l, 24 H): 3 arbitrary units
Color (Listeria ivanovii 018; Tin chloride 50 mg/l, 48 H): orange
Intensity (Listeria ivanovii 018; Tin chloride 50 mg/l, 48 H): 4 arbitrary units
Color (Listeria grayi 078; Aluminum sulfate 50 mg/l, 24 H): red
Intensity (Listeria grayi 078; Aluminum sulfate 50 mg/l, 24 H): 4 arbitrary units
Color (Listeria grayi 078; Aluminum sulfate 50 mg/l, 48 H): red
Intensity (Listeria grayi 078; Aluminum sulfate 50 mg/l, 48 H): 4 arbitrary units
Color (Listeria grayi 078; Control, no metal salt, 24 H): purple
Intensity (Listeria grayi 078; Control, no metal salt, 24 H): 2 arbitrary units
Color (Listeria grayi 078; Control, no metal salt, 48 H): purple
Intensity (Listeria grayi 078; Control, no metal salt, 48 H): 2.3 arbitrary units
Color (Listeria grayi 078; Iron citrate 50 mg/l, 24 H): purple
Intensity (Listeria grayi 078; Iron citrate 50 mg/l, 24 H): 4 arbitrary units
Color (Listeria grayi 078; Iron citrate 50 mg/l, 48 H): purple
Intensity (Listeria grayi 078; Iron citrate 50 mg/l, 48 H): 4 arbitrary units
Color (Listeria grayi 078; [2]): purple
Intensity (Listeria grayi 078; [2]): 2 arbitrary units
Color (Listeria grayi 078; [3]): purple
Intensity (Listeria grayi 078; [3]): 2 arbitrary units
Color (Listeria grayi 078; Tin chloride 50 mg/l, 24 H): orange
Intensity (Listeria grayi 078; Tin chloride 50 mg/l, 24 H): 3 arbitrary units
Color (Listeria grayi 078; Tin chloride 50 mg/l, 48 H): orange
Intensity (Listeria grayi 078; Tin chloride 50 mg/l, 48 H): 4 arbitrary units
Color (Listeria ivanovii 020; Aluminum sulfate 50 mg/l, 24 H): red
Intensity (Listeria ivanovii 020; Aluminum sulfate 50 mg/l, 24 H): 4 arbitrary units
Color (Listeria ivanovii 020; Aluminum sulfate 50 mg/l, 48 H): red
Intensity (Listeria ivanovii 020; Aluminum sulfate 50 mg/l, 48 H): 4 arbitrary units
Color (Listeria ivanovii 020; Control, no metal salt, 24 H): purple
Intensity (Listeria ivanovii 020; Control, no metal salt, 24 H): 2.3 arbitrary units
Color (Listeria ivanovii 020; Control, no metal salt, 48 H): purple
Intensity (Listeria ivanovii 020; Control, no metal salt, 48 H): 2.3 arbitrary units
Color (Listeria ivanovii 020; Iron citrate 50 mg/l, 24 H): purple
Intensity (Listeria ivanovii 020; Iron citrate 50 mg/l, 24 H): 4 arbitrary units
Color (Listeria ivanovii 020; Iron citrate 50 mg/l, 48 H): purple
Intensity (Listeria ivanovii 020; Iron citrate 50 mg/l, 48 H): 4 arbitrary units
Color (Listeria ivanovii 020; [2]): purple
Intensity (Listeria ivanovii 020; [2]): 2.7 arbitrary units
Color (Listeria ivanovii 020; [3]): purple
Intensity (Listeria ivanovii 020; [3]): 2.7 arbitrary units
Color (Listeria ivanovii 020; Tin chloride 50 mg/l, 24 H): orange
Intensity (Listeria ivanovii 020; Tin chloride 50 mg/l, 24 H): 3 arbitrary units
Color (Listeria ivanovii 020; Tin chloride 50 mg/l, 48 H): orange
Intensity (Listeria ivanovii 020; Tin chloride 50 mg/l, 48 H): 4 arbitrary units
Color (Listeria seeligeri 011; Aluminum sulfate 50 mg/l, 24 H): red
Intensity (Listeria seeligeri 011; Aluminum sulfate 50 mg/l, 24 H): 4 arbitrary units
Color (Listeria seeligeri 011; Aluminum sulfate 50 mg/l, 48 H): red
Intensity (Listeria seeligeri 011; Aluminum sulfate 50 mg/l, 48 H): 4 arbitrary units
Color (Listeria seeligeri 011; Control, no metal salt, 24 H): purple
Intensity (Listeria seeligeri 011; Control, no metal salt, 24 H): 2.3 arbitrary units
Color (Listeria seeligeri 011; Control, no metal salt, 48 H): purple
Intensity (Listeria seeligeri 011; Control, no metal salt, 48 H): 2.3 arbitrary units
Color (Listeria seeligeri 011; Iron citrate 50 mg/l, 24 H): purple
Intensity (Listeria seeligeri 011; Iron citrate 50 mg/l, 24 H): 4 arbitrary units
Color (Listeria seeligeri 011; Iron citrate 50 mg/l, 48 H): purple
Intensity (Listeria seeligeri 011; Iron citrate 50 mg/l, 48 H): 4 arbitrary units
Color (Listeria seeligeri 011; [2]): purple
Intensity (Listeria seeligeri 011; [2]): 2.7 arbitrary units
Color (Listeria seeligeri 011; [3]): purple
Intensity (Listeria seeligeri 011; [3]): 2.7 arbitrary units
Color (Listeria seeligeri 011; Tin chloride 50 mg/l, 24 H): orange
Intensity (Listeria seeligeri 011; Tin chloride 50 mg/l, 24 H): 3 arbitrary units
Color (Listeria seeligeri 011; Tin chloride 50 mg/l, 48 H): orange
Intensity (Listeria seeligeri 011; Tin chloride 50 mg/l, 48 H): 4 arbitrary units
Color (Listeria innocua 077; Aluminum sulfate 50 mg/l, 24 H): red
Intensity (Listeria innocua 077; Aluminum sulfate 50 mg/l, 24 H): 4 arbitrary units
Color (Listeria innocua 077; Aluminum sulfate 50 mg/l, 48 H): red
Intensity (Listeria innocua 077; Aluminum sulfate 50 mg/l, 48 H): 4 arbitrary units
Color (Listeria innocua 077; Control, no metal salt, 24 H): purple
Intensity (Listeria innocua 077; Control, no metal salt, 24 H): 2.3 arbitrary units
Color (Listeria innocua 077; Control, no metal salt, 48 H): purple
Intensity (Listeria innocua 077; Control, no metal salt, 48 H): 2.3 arbitrary units
Color (Listeria innocua 077; Iron citrate 50 mg/l, 24 H): purple
Intensity (Listeria innocua 077; Iron citrate 50 mg/l, 24 H): 4 arbitrary units
Color (Listeria innocua 077; Iron citrate 50 mg/l, 48 H): purple
Intensity (Listeria innocua 077; Iron citrate 50 mg/l, 48 H): 4 arbitrary units
Color (Listeria innocua 077; [2]): purple
Intensity (Listeria innocua 077; [2]): 2.3 arbitrary units
Color (Listeria innocua 077; [3]): purple
Intensity (Listeria innocua 077; [3]): 2.3 arbitrary units
Color (Listeria innocua 077; Tin chloride 50 mg/l, 24 H): orange
Intensity (Listeria innocua 077; Tin chloride 50 mg/l, 24 H): 3 arbitrary units
Color (Listeria innocua 077; Tin chloride 50 mg/l, 48 H): orange
Intensity (Listeria innocua 077; Tin chloride 50 mg/l, 48 H): 4 arbitrary units
